{"source": "patent US20170266237A1", "about": "“Generation of Brown Adipose Tissue (BAT) from Mesenchymal Cells” (National University of Singapore, priority 2012, published 2017)", "molecules": {"B1": {"name": "BMP7: bone morphogenetic protein, R&D Systems 354-BP, 125 ng/ml pre-treatment 3 days prior to induction (protein, UniProt P18075 293-431, looked up)", "Bone morphogenetic protein 7": "STGSKQRSQNRSKTPKNQEALRMANVAENSSSDQRQACKKHELYVSFRDLGWQDWIIAPEGYAAYYCEGECAFPLNSYMNATNHAIVQTLVHFINPETVPKPCCAPTQLNAISVLYFDDSSNVILKKYRNMVVRACGCH"}}, "format_in_all_cases": "cell-based, human", "key": {"[1]": {"tested_on": "adipogenically induced mesenchymal stem cells", "assay": "Nile Red adherent cytometry of cytoplasmic lipid accumulation / lipolysis", "details": "for lipolysis after isoproterenol (emptying of lipid droplets): 16 hrs of 5 μM isoproterenol, white and brown adipogenically induced MSCs", "description": "b) Adipogenic Induction of Mesenchymal Stem Cells (MSC). MSCs were seeded at an initial density of about 10.5×10^4 cells/cm^2 in well plates and grown to confluence. Adipogenic differentiation was induced via three cycles of 4 days of induction, followed by 3 days of maintenance. The basal media used in the differentiation process composed of high glucose Dulbecco's modified Eagle's medium (HG DMEM, Gibco) supplemented with Glutamax, 10% fetal bovine serum, 100 units/ml penicillin and […] streptomycin The standard white adipogenic induction media is supplemented with 3-isobutyl-1methylxanthine (0.5 mM), indomethacin (0.2 mM), dexamethasone (1 μM) and insulin (10 μg/ml). For brown adipocyte differentiation, cells were pre-treated with BMP7 (R&D Systems 354-BP, 125 ng/ml) 3 days prior to induction. The brown adipogenic induction media is supplemented with 3-isobutyl-lmethylxanthine (0.5 mM), indomethacin (0.2 mM), dexamethasone (1 μM), insulin (10 μg/ml), triiodothyronine (1 nM) and Rosiglitazone (1 μM). Basal media alone was used during the maintenance phase. For conditions treated with macromolecular crowding (+MMC), a cocktail of macromolecules (+MMC), consisting of Ficoll 70 (37.5 mg/ml) and Ficoll 400 (25 mg/ml) was added to the basal media (High glucose DMEM, Gibco) throughout the differentiation process (during both induction and maintenance phases).\nc) Stimulation with forskolin or isoproterenol. After the 3-week adipogenic differentiation, cells were incubated with 10 μM forskolin (Sigma) or 5 μM isoproterenol (Sigma) for 4 h or 16 h before analysis, to mimic nor-adrenergic stimulation in culture.\nd) Nile Red Adherent Cytometry to assess area of cytoplasmic lipid accumulation. After 21 days (corresponding to three complete induction cycles), cell cultures were rinsed with PBS, fixed in 4% formaldehyde (10 min; RT) then co-stained for 30 min with Nile Red (Sigma-Aldrich; 5 μg/ml), for cytoplasmic lipid droplets and 4′,6-diamidino-2-phenylindole (DAPI; 0.5 μg/ml) for nuclear DNA as described previously. Adherent fluorescent cytometry was based on 9 sites per well imaged with a coolSNAP HQ camera attached to a Nikon TE2000 microscope at 2× magnification, covering 83% of total well area. Nile Red was viewed under a rhodamine filter [Ex572 nm/Em630 nm] while DAPI fluorescence was assessed with a DAPI filter [Ex350 nm/Em465 nm]. Measured Nile Red events were thresholded and measured by an image analysis software (MetaMorph 6.3v3). Extent of adipogenic differentiation was quantified by area of Nile Red fluorescence from thresholded events normalized to nuclei count based on detected DAPI fluorescence. End data corresponded to total area of lipid droplets present per well relative to cell number."}, "UCP1 mRNA [2]": {"tested_on": "UCP1 mRNA", "assay": "Quantitative PCR of UCP1 mRNA after forskolin stimulation of adipogenically induced MSCs", "details": "adipogenically induced MSCs stimulated with forskolin", "description": "b) Adipogenic Induction of Mesenchymal Stem Cells (MSC). MSCs were seeded at an initial density of about 10.5×10^4 cells/cm^2 in well plates and grown to confluence. Adipogenic differentiation was induced via three cycles of 4 days of induction, followed by 3 days of maintenance. The basal media used in the differentiation process composed of high glucose Dulbecco's modified Eagle's medium (HG DMEM, Gibco) supplemented with Glutamax, 10% fetal bovine serum, 100 units/ml penicillin and […] streptomycin The standard white adipogenic induction media is supplemented with 3-isobutyl-1methylxanthine (0.5 mM), indomethacin (0.2 mM), dexamethasone (1 μM) and insulin (10 μg/ml). For brown adipocyte differentiation, cells were pre-treated with BMP7 (R&D Systems 354-BP, 125 ng/ml) 3 days prior to induction. […]\n(§1) e) Quantitative PCR to assess expression of pan-adipocyte and brown adipocyte genes. […] Real time quantitative polymerase chain reactions (RT-PCR) were performed and monitored on a real-time PCR instrument (Stratagene) using Maxima™ SYBR Green/ROX qPCR Master Mix (K0222, Fermentas). […] Relative gene expression levels were determined using the ΔΔ-Ct method with the geometric mean of human TATA-box binding protein (TBP) and ribosomal phosphoprotein P0 (RPLP0) levels as an endogenous control."}, "UCP1 mRNA [3]": {"tested_on": "UCP1 mRNA", "assay": "Quantitative PCR of UCP1 mRNA expression in adipogenically induced MSCs", "details": "3-week adipogenic induction of MSCs", "description": "a) Mesenchymal Stem Cell Culture. Human bone-marrow derived mesenchymal stem cells (MSCs) were obtained commercially (Cambrex) at passage 2 (p2) and cultured in a basic culture medium composed of low glucose Dulbecco's modified Eagle's medium (LG DMEM, Gibco) supplemented with Glutamax, 10% fetal bovine serum, 100 units/ml penicillin and […] streptomycin. Cells were maintained at 37° C. in a humidified atmosphere of 5% CO2, with medium change twice per week. To prevent spontaneous differentiation, cells were maintained at subconfluent levels prior to being detached using TrypLE™ Express (Gibco), passaged at 1:3 and cultured to generate subsequent passages. Directed differentiation was carried out with cells between passage 6 (p6) and 8 (p8).\nb) Adipogenic Induction of Mesenchymal Stem Cells (MSC). […]\nas §1"}}}
{"molecule": "C=C[C@@]1(C)CC(=O)[C@]2(O)[C@@]3(C)[C@@H](O)CCC(C)(C)[C@@H]3[C@H](O)[C@H](OC(C)=O)[C@@]2(C)O1", "note": "[forskolin]", "values": [{"measurement": "reduction of Nile Red positive area (factor)", "setting": "[1]; brown induction protocol, 16 hrs after forskolin stimulus", "result": 2.14}, {"measurement": "reduction of hypothetical triglyceride volume (factor)", "setting": "[1]; modeled as sphere, brown induced MSCs under crowding, after forskolin treatment", "result": 3}, {"measurement": "additional UCP1 mRNA upregulation on forskolin stimulation", "setting": "UCP1 mRNA [2]", "result": 10, "unit": "fold"}]}
{"molecule": "CC(C)NCC(O)c1ccc(O)c(O)c1", "note": "(stereo not drawn) [isoproterenol]", "values": [{"measurement": "lipolysis after isoproterenol (emptying of lipid droplets)", "setting": "[1]", "result": "leads to emptying of lipid droplets"}, {"measurement": "lipolysis after isoproterenol (emptying of lipid droplets)", "setting": "[1]; listed as Isoproterenol", "result": "stronger lipolytic effect on adipocytes that had been differentiated under a BAT induction protocol"}]}
{"molecule": "B1", "values": [{"measurement": "effect on UCP1 mRNA expression (in words)", "setting": "UCP1 mRNA [3]", "result": "only modestly increases"}]}
